Read-outs that look alike come from different tables or passages of the source. Values belong to the molecule of their own block, whether it stands above or below them.
Biological target: T1, alkaline protease (crystalline enzyme of the present invention) from Bacillus sp. No. 221 (ATCC 21522), Bacillus sp. No. 0-4 (ATCC 21536) or Bacillus sp. No. Y- (Shouchella clausii, UniProt P41362)
T1 construct: made in house; host or cells: culture of the wild Bacillus strain (No. 221, No. 0-4 or No. Y-76); native enzyme isolated from the culture
T1 sequence (P41362 112-380): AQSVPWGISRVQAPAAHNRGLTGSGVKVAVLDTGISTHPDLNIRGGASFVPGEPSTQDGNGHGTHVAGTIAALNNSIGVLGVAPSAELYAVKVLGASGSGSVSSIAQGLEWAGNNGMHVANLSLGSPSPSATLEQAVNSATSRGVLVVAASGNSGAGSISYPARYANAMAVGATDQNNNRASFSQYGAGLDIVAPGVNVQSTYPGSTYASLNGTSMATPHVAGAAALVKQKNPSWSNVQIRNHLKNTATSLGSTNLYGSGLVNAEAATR
Type: biochemical, No. Y-76
Method: One milliliter of the enzyme solution suitably diluted with 10^-2 M CaCl2 was mixed with 5 ml of 0.6% casein solution (pH 11.5, 2 × 10^-2 M Na2 HPO4 - NaOH buffer) at 30° C. After 10 minutes' incubation, 5 ml of trichloroacetic acid solution (0.11M trichloroacetic acid, 0.22M sodium acetate, and 0.33M acetic acid) was added to the reaction mixture and the mixture was further incubated at 30° C for 30 minutes. The mixture was filtered and the absorbance of the filtrate was measured at 275 mμ. The readings were corrected by substracting the value of the blank in which the enxyme solution was mixed with trichloroacetic acid solution before the casein solution was added.
One unit of protease activity is defined as the amount of enzyme required to produce the digest which is not precipitated by trichloroacetic acid and which gives absorbance value equivalent to 1 γ of tyrosine per minute at 30° C. The relative activity is the activity at any pH divided by the maximum activity and multiplied by 100. FIG. 4 of this application gives the data of the absolute activity (arbitrary scale) on the ordinate and the pH's on the axis of the abscissa.

SMILES: O=C(O)CN(CCN(CC(=O)O)CC(=O)O)CC(=O)O [EDTA, ethylenediaminetetraacetic acid]
Residual activity: 100%

SMILES: O=C(O)c1cc[c]([Hg][Cl])cc1 [PCMB, p-chloromercuribenzoate]
Residual activity (additive concentration 10^-3 M): 100%

Residual activity (additive concentration 6 M): 0%
SMILES: NC(N)=O [Urea]

Reference: patent US4052262A (priority 1969, dated 1977)
